# According to patent US20230365577A1, “Photodynamic Therapy and Diagnosis” (RMW CHO Group Limited, priority 2020, published 2023):
# “And” between values parts separate entries of the source, which are not always exact repeats. Equal values may be shown once. Read-outs that look alike come from different tables or passages of the source.
# What was measured:
# [1] = test system: SKOV3 ovarian cancer cells; assay: Inherent cytotoxicity (dark toxicity) in SKOV3 cells (AlamarBlue viability); assay type: cell-based, Human; conditions: for Concentration at which cells remained >80% viable (dark toxicity) / Concentration at which cells retained >80% viability (dark toxicity): SKOV3, 24 hours; for Concentration at which cells remained >80% viable (dark toxicity): absence of PVP; for Concentration at which cells retained >80% viability (dark toxicity): with addition of PVP
# Protocol: (§1) Human ovarian cancer cell line SKOV3 (ATCC #HTB-77) was maintained in Dulbecco's Modified Eagle Medium/Nutrient Mixture F-12 (DMEM/F-12), supplemented with 10% v/v Fetal Bovine Serum, 100 U/mL penicillin and 100 µg/mL streptomycin. Monolayer cultures were grown in a humidified incubator at 37° C. with 5% CO2.
# (§2) For in vitro experiments, photosensitizers (stock solution 5.5 mM in 100% DMSO) were diluted in cell culture media (Dulbecco's Modified Eagle Medium/Nutrient Mixture F-12) supplemented with 10% v/v Fetal Bovine Serum, 100 U/mL penicillin, 100 µg/mL streptomycin and 10% w/v Kollidon-12. Once cells had reached ˜80% confluence, spent media was replaced with media containing photosensitizer and cells were incubated for the desired period of time to allow photosensitizer uptake.
# (§3) SKOV3 cells were seeded in 96-well black wall plates (Greiner #655090) at a cell density of 5000 cells in 100 μl culture medium per well. On reaching ˜60% confluence, media was aspirated and replaced with fresh media containing the relevant phyllochlorin analogue from 0-100 μM in DMSO. Cells were incubated for a further 24 hours, allowing uptake of phyllochlorin analogues.
# (§4) To test for inherent cytotoxicity (i.e. “dark toxicity”) of the phyllochlorin analogue the culture media was replaced after 24 hours with fresh media containing 10% (v/v) AlamarBlue Cell Viability Reagent (ThermoFisher) and cells incubated at 37° C. for 6 hours. Untreated cells were used as a control. Fluorescence (Ex 555 nm/Em 596 nm) was measured using a Cytation 3 Multimode Plate Reader (Biotek), and cytotoxicity assessed according to the % viable cells remaining. All measurements were made in quadruplicate.
# (§5) For comparative purposes, phyllochlorin analogues were tested and compared against both chlorin e4 disodium and Talaporfin sodium, a clinically approved photosensitizer used in the photodynamic treatment of lung cancers. Phototoxicity IC90 values and dark toxicity IC10 values were calculated using a log[inhibitor]-vs normalized response dose curve with variable slope, using the formula Y=100/(1+(IC90/X)^HillSlope (phototoxicity IC90) or Y=100/(1+(IC10/X)^HillSlope (dark toxicity IC10).
# [2] = test system: SKOV3 ovarian cancer cells; assay: Phototoxicity in SKOV3 cells (652 nm laser, AlamarBlue viability); assay type: cell-based, Human; conditions: for IC50: SKOV3, 652 nm laser, estimated from fitted curves
# Protocol: as §1, §2
# as §3, with “confluence, so” for “confluence,”
# (§6) To test for phototoxicity, cells incubated with phyllochlorin analogues (0-10 μM in DMSO) had culture media replaced after 24 hours (as above) and were then exposed to a 652 nm laser (Invion) with laser density at 50 mW/cm^2 for 5 mins (total 15 J/cm^2). Following activation, cells were cultured for a further 24 hours. Media was then replaced with fresh media containing AlamarBlue, and % viable cells remaining assessed as above. Controls included cells treated with phyllochlorin analogues but not activated by laser light; cells without phyllochlorin analogue treatment but with laser light; and untreated controls. All measurements were made in quadruplicate.
# as §5
# [3] = Acute toxicity after intraperitoneal injection; assay type: in vivo, C57BL/6 mice; conditions: 5 mg/kg intraperitoneal, 1% PVP in PBS + 20 mM HEPES, observed 30 mins
# Protocol: To assess acute toxicity, phyllochlorin or chlorin e4 disodium (each prepared with 1% PVP in PBS+20 mM HEPES) were administered at a dose of 5 mg/kg to C57BL/6 mice by intraperitoneal injection.
# [4] = Singlet oxygen (1O2) production rate; assay type: physicochemical
# Source text: The production of singlet oxygen (^1O2), cellular phototoxicity and light-independent cytotoxicity (“dark toxicity”) of a number of phyllochlorin analogues were compared against chlorin e4 disodium and Talaporfin sodium (mono-L-aspartyl chlorin e6), the active ingredient of Laserphyrin™.
# [5] = test system: MDA-MB-468; assay: Cytotoxicity, pan-cancer panel; assay type: cell-based; conditions: MDA-MB-468, breast adenocarcinoma (triple negative)
# Protocol: as §4
# (§7) The activity of phyllochlorin analogues against multiple cancer cell types was assessed as above, using compounds 3 and 6 as examples.
# [6] = test system: CaOV3; assay: Cytotoxicity, pan-cancer panel; assay type: cell-based; conditions: CaOV3, ovarian adenocarcinoma
# Protocol: as §4, §7
# [7] = test system: A549; assay: Cytotoxicity, pan-cancer panel; assay type: cell-based; conditions: A549, lung adenocarcinoma
# Protocol: as §4, §7
# [8] = test system: HH; assay: Cytotoxicity, pan-cancer panel; assay type: cell-based; conditions: T cell lymphoma
# Protocol: as §4, §7
# [9] = test system: HEK293; assay: Cytotoxicity, pan-cancer panel; assay type: cell-based; conditions: HEK293, embryonic kidney
# Protocol: as §4, §7
# [10] = test system: OVCAR3; assay: Cytotoxicity, pan-cancer panel; assay type: cell-based; conditions: OVCAR3, ovarian adenocarcinoma
# Protocol: as §4, §7
# [11] = test system: LP9; assay: Cytotoxicity, pan-cancer panel; assay type: cell-based; conditions: LP9, immortalised mesothelial cells
# Protocol: as §4, §7
# [12] = test system: DLD-1; assay: Cytotoxicity, pan-cancer panel; assay type: cell-based; conditions: DLD-1, colorectal adenocarcinoma
# Protocol: as §4, §7
# [13] = test system: MDA-MB-468; assay: Phototoxicity, pan-cancer panel; assay type: cell-based; conditions: Homo sapiens, light or radiation study; MDA-MB-468, breast adenocarcinoma (triple negative)
# Protocol: as §6, §7
# [14] = test system: CaOV3; assay: Phototoxicity, pan-cancer panel; assay type: cell-based; conditions: Homo sapiens, Caov-3, light or radiation study; CaOV3, ovarian adenocarcinoma
# Protocol: as §6, §7
# [15] = test system: A549; assay: Phototoxicity, pan-cancer panel; assay type: cell-based; conditions: Homo sapiens, light or radiation study; A549, lung adenocarcinoma
# Protocol: as §6, §7
# [16] = test system: HH; assay: Phototoxicity, pan-cancer panel; assay type: cell-based; conditions: Homo sapiens, light or radiation study, T cell lymphoma
# Protocol: as §6, §7
# [17] = test system: HEK293; assay: Phototoxicity, pan-cancer panel; assay type: cell-based; conditions: Homo sapiens, light or radiation study; HEK293, embryonic kidney
# Protocol: as §6, §7
# [18] = test system: OVCAR3; assay: Phototoxicity, pan-cancer panel; assay type: cell-based; conditions: Homo sapiens, OVCAR-3, light or radiation study; OVCAR3, ovarian adenocarcinoma
# Protocol: as §6, §7
# [19] = test system: LP9; assay: Phototoxicity, pan-cancer panel; assay type: cell-based; conditions: light or radiation study; LP9, immortalised mesothelial cells
# Protocol: as §6, §7
# [20] = test system: DLD-1; assay: Phototoxicity, pan-cancer panel; assay type: cell-based; conditions: Homo sapiens, light or radiation study; DLD-1, colorectal adenocarcinoma
# Protocol: as §6, §7
# [21] = Estimated pKa of the carboxylic acid; assay type: physicochemical
# Source text: As PBS buffer (pH 7.4) is used in the experiments and the carboxylic acid in phyllochlorin (and the same carboxy group in other related chlorins) is estimated to have a pKa of less than 5, phyllochlorin in the PBS buffer will exist predominantly as the sodium and potassium salts with very little to no free acid.
# [22] = Solubility and absorbance maxima (absorbance spectra in DMSO/PBS, with or without PVP); assay type: physicochemical
# Protocol: Absorbance maxima (660±2 nm for phyllochlorin) were used as a surrogate measure of solubility. The relevant phyllochlorin analogue was diluted to 50 μM in PBS (phosphate buffered saline) solutions containing decreasing amounts of DMSO from 100% to 0%.
# Where required, polyvinylpyrrolidone (K30) was added to a final concentration of 1% w/v. Absorbance was measured using a Cytation 3 Multimode Plate Reader (Biotek) in spectral scanning mode, with spectra captured between 500-800 nm in 2 nm increments. Equivalent blank solutions were also measured and subtracted accordingly. Each spectrum was normalized to have a minimum signal of 0, and a maximum signal in pure DMSO solution (the most soluble state) of 100%.
# The solubility of phyllochlorin was assessed in solutions containing DMSO as an organic solvent. Phyllochlorin (50 μM final concentration) was resuspended in 100% DMSO to fully dissolve the phyllochlorin. With phyllochlorin concentrations maintained at 50 μM the % DMSO was decreased in a stepwise manner from 100% to 0%. All solutions were mixed by vortexing, then centrifuged for 2 mins to pellet any insoluble material. A 150 μl aliquot was transferred to individual wells of a 96-well clear microplate, and absorbance spectra collected between 500-800 nm in 2 nm increments. Equivalent solutions containing decreasing % DMSO were used to control for background.
# [23] = SKOV3, 24 h incubation, no light
# [24] = SKOV3, 24 h uptake, 652 nm laser 50 mW/cm2 5 mins (15 J/cm2), viability 24 h later, read-out: Cellular Toxicity: Phototoxicity IC90
smiles,measurement,setting,value
"C=Cc1c(C)c2cc3nc(c(C)c4[nH]c(cc5nc(cc1[nH]2)C(C)=C5CC)c(C)c4C(=O)O)[C@@H](CCC(=O)O)[C@@H]3C [Chlorin e4 disodium, chlorin e4 disodium, reference compound]",Concentration at which cells remained >80% viable (dark toxicity),[1],up to 80 μM
same,Concentration at which cells retained >80% viability (dark toxicity),[1],100 µM
same,Cellular Toxicity: Dark toxicity IC10,[1]; [23],40230 nM
same,IC50,[2]; absence of PVP,4530 nM
same,IC50,[2]; with addition of PVP,1350 nM
same,IC90,[2]; [24],21300 nM
same,Side effects (clinical signs of acute toxicity),[3],No side effects were noted
same,Singlet Oxygen Production (slope) 1O2,[4],998.2
"C=Cc1c(C)c2cc3nc(c(C)c4cc(C)c(cc5nc(cc1[nH]2)C(C)=C5CC)[nH]4)[C@@H](CCC(=O)NCCCS[C@@H]1O[C@H](CO)[C@@H](O)[C@H](O)[C@H]1O)[C@@H]3C [Compound 3, 3-((7S,8S)-18-ethyl-2,5,8,12,17-pentamethyl-13-vinyl-7H,8H-porphyrin-7-yl)-N-(3-(((2S,3R,4S,5S,6R)-3,4,5-trihydroxy-6-(hydroxymethyl)tetrahydro-2H-pyran-2-yl)thio)propyl)propanamide]",Cytotoxicity IC10,[5],6000 nM
same,Cytotoxicity IC10,[6],5430 nM
same,Cytotoxicity IC10,[7],4220 nM
same,Cytotoxicity IC10,[8],14800 nM
same,Cytotoxicity IC10,[9],8110 nM
same,Cytotoxicity IC10,[10],29970 nM
same,Cytotoxicity IC10,[11],18010 nM
same,Cytotoxicity IC10,[12],42280 nM
same,Cellular Toxicity: Dark toxicity IC10,"[1]; human, 24 h",20660 nM
same,Cytotoxicity IC10,"[1]; human, 24 h",20660 nM
same,IC90,"[2]; Homo sapiens, SK-OV-3, light or radiation study, SKOV3, ovarian clear cell (Table 2), read-out: Phototoxicity IC90",110 nM
same,IC90,"[2]; Homo sapiens, SK-OV-3, light or radiation study, SKOV3, 24 h uptake, 652 nm laser 50 mW/cm2 5 mins (15 J/cm2), viability 24 h later, read-out: Cellular Toxicity: Phototoxicity IC90",80 nM
same,IC90,"[2]; Homo sapiens, SK-OV-3, light or radiation study, SKOV3, read-out: Phototoxicity apparent IC90",< 100 nM
same,IC90,[13],70 nM
same,IC90,[14],50 nM
same,IC90,[15],200 nM
same,IC90,[16],110 nM
same,IC90,[17],220 nM
same,IC90,[18],170 nM
same,IC90,[19],40 nM
same,IC90,[20],360 nM
same,Singlet Oxygen Production (slope) 1O2,[4],2054.0
"C=CC1=C(C)c2cc3nc(c(C)c4cc(C)c(cc5[nH]c(cc1n2)c(C)c5CC)[nH]4)[C@@H](CCC(=O)O)[C@@H]3C [Phyllochlorin free acid, phyllochlorin free acid]",Concentration at which cells remained >80% viable (dark toxicity),[1],10 µM
same,Concentration at which cells retained >80% viability (dark toxicity),[1],up to 25 μM
same,Cellular Toxicity: Dark toxicity IC10,[1]; [23],13810 nM
same,IC50,[2]; absence of PVP,63.1 nM and 60 nM
same,IC50,[2]; with addition of PVP,53.9 nM
same,IC90,[2]; [24],290 nM
same,Times more potent as a phototoxic agent than chlorin e4 disodium salt,"[2]; ovarian cancer cells, head to head, without PVP",~75 times
same,pKa of the carboxylic acid,[21],less than 5
same,Side effects (clinical signs of acute toxicity),[3],No side effects were noted
same,Solubility,"[22]; 50 μM, 1% w/v PVP, absorbance as surrogate",remained soluble in aqueous solvent (without DMSO)
same,Absorbance maxima,"[22]; aqueous solvent, single broad peak",688±2 nm
same,Absorbance maxima,[22]; fully solubilized in organic solvent (75% DMSO and above),660±2 nm
same,Singlet Oxygen Production (slope) 1O2,[4],1335.5
